Data taken from EP2305268A1, “A PHARMACEUTICAL COMPOSITION FOR TREATING DISEASE CAUSED BY IMMUNE DISTURBANCE AND THE EXTRACT FROM TUCKAHOE” (Sinphar Tian-li Pharmaceutical Co., Ltd. (Hangzhou), priority 2008, dated 2009).
Several values for one entry are separate records, joined by “and”; a condition that tells them apart may be missing. Equal values may be shown once.

Key:
Assay type in all cases: in vivo, BALB/c mice
Eotaxin = Eotaxin level in BALF by Sandwich-ELISA; details: mean ± SD
Method: (§1) Mice in different groups were fed with a Poria extract or pure lanostane compound during the experimental period, and each mouse was subjected to an airway hyperresponsiveness test after one-month feeding, from which an important index reflecting the severe degree of the asthma of the mouse was determined. […] Further, a chemoattractant factor, Eotaxin, was an important observation factor in this example for observing whether the secretion of cytokines changed dramatically.
(§2) • (1) Experimental animal: Inbred BALB/c female mice were maintained by standard laboratory chow ad libitum. Room temperature was maintained at 19-24°C and relative humidity at 50-70%. […] Three minutes after the introduction an average value of AHR per minute was recorded. […] The value of Penh (pause of enhance) was calculated by collecting data derived from transducer (differential pressure transducer; Buxco) and preamplifier (MAX □, Buxco) in the system. The relative increase ratio of Penh was calculated as Penh% = Penhmethacholine/PenhPBS, wherein Penhmethacholine is the average value of Penh after the mice inhale 3 minutes of methacholine aerosol, and PenhPBS is the average value of Penh after the mice inhale 3 minutes of PBS aerosol. • (5) Bronchoalveolar lavage fluid (BALF) and lung histology: As all groups of mice had finished of AHR analysis, they were sacrificed on next day. […]

[1] = tested on: OVA-sensitized asthmatic mice; test: Airway hyperresponsiveness (AHR) test, Buxco system, Penh after methacholine aerosol
Method: as §1, §2

[2] = tested on: immune cells in BALF of OVA-sensitized mice; test: Percentage of subpopulations of immune cells in bronchoalveolar lavage fluid (BALF), Liu's stain cell count; details: % of total BALF cells, mean ± SD
Method: as §1
• (1) Experimental animal: Inbred BALB/c female mice were maintained by standard laboratory chow ad libitum. Room temperature was maintained at 19-24°C and relative humidity at 50-70%. Animal experiments were performed according to the Guidelines for the Care and Use of Laboratory Animals, Fu-Jen University, Taiwan. […] All mice were exposed to inhalate exposure to 8 ml of 2% OVA aerosols for a period of 20 minutes by placing them in a chamber using an ultrasonic nebulizer (DeVilbiss Pulmo-Aide, 5650D, USA), after receiving the second intraperitoneal injection. • (3) Grouping of the experimental animal: The 10 groups of OVA-sensitized asthmatic mice were separated into a non-treatment asthma group (As); treatment groups with the Poria extract prepared in Example 2 and pure compounds K1, K2 and K3 (1PCE, 1K1, 1K2, 1K3, 2PCE, 2K1, 2K2, and 2K3); and the control drug group (Pred). Each mouse in the treatment group of 1PCE group received daily 0.0372 mg of the ethanol extract PCE prepared in Example 2 (1PCE). 2PCE means mice were fed with two times of the dosage of PCE (0.0744 mg) of the 1PCE group. Each mouse in the treatment groups of 1K1, 1K2 and 1K3 received daily 0.0087 mg of K1, K2 and K3, respectively. 2K1, 2K2, and 2K3 mean mice werer fed with two times of the dosage of K1, K2 and K3 (0.0174 mg) in comparison with the 1K1, 1K2 and 1 K3 groups. Each mouse of the Pred group had been administrated with 0.1 mg of Prednisolone per day for 5 continuous days before the mouse was sacrificed. Above PCE, K1, K2, K3 and Prednisolone compounds were dissolved by 95% ethanol firstly, and finally in Phosphate Buffer Solution (PBS). Each mouse was administered 0.4 mL of total volume each time by gavage. • (4) Airway hyperresponsiveness test: An airway hyperresponsiveness (AHR) value increases proportionally with the severe degree of asthma, and thus a decrease of AHR value is an important index for determining whether asthma is being released. Each mouse in all groups was subjected to the AHR test next day following the 29th day of administering in the treatment groups on which the last inhalate exposure was conducted. The AHR was tested with Buxco system (Biosystem XA; Buxco Electronics Inc. Sharon, CT, USA), wherein the mouse was placed in a chamber, and aerosol of PBS or methacholine of different concentrations (25 mg/ml, and 50 mg/ml) was introduced into the chamber by using an ultrasonic nebulizer. Three minutes after the introduction an average value of AHR per minute was recorded. […] The value of Penh (pause of enhance) was calculated by collecting data derived from transducer (differential pressure transducer; Buxco) and preamplifier (MAX □, Buxco) in the system. The relative increase ratio of Penh was calculated as Penh% = Penhmethacholine/PenhPBS, wherein Penhmethacholine is the average value of Penh after the mice inhale 3 minutes of methacholine aerosol, and PenhPBS is the average value of Penh after the mice inhale 3 minutes of PBS aerosol. • (5) Bronchoalveolar lavage fluid (BALF) and lung histology: As all groups of mice had finished of AHR analysis, they were sacrificed on next day. The lung was immediately lavaged via the trachea cannula (18 GA, angiocath, B.D.) with 1 ml of Hank's balanced salt solution (HBSS, SH30016.01, Hyclone, USA), which contained 2% fetal bovine serum (FBS) and 2 mM 2Na-EDTA for three times. About 3 ml of BALF were collected.

[3] = groups 1K1, 1K2, 1K3: 0.0087 mg per mouse daily by gavage
[4] = groups 2K1, 2K2, 2K3: 0.0174 mg per mouse daily by gavage
[5] = Pred group: 0.1 mg Prednisolone per day for 5 continuous days before sacrifice

SMILES	Eotaxin (Eotaxin; [3])	Eotaxin (Eotaxin; [4]) [pg/mL]	values of AHR in comparison with the As group ([1]; groups 1K1, 1K3: 0.0087 mg per mouse daily by gavage, methacholine 50mg/mL)	Eosinophil [2, 3] [%]	Lymphocyte [2, 3] [%]	Monocyte [2, 3] [%]	Neutrophil [2, 3] [%]	Eosinophil [2, 4] [%]	Lymphocyte [2, 4] [%]	Monocyte [2, 4] [%]	Neutrophil [2, 4] [%]	values of AHR in comparison with the As group [1, 5]	Monocyte [2, 5] [%]	Neutrophil [2, 5] [%]
C=C(CC[C@@H](C(=O)O)[C@H]1[C@H](O)C[C@@]2(C)C3=CC[C@H]4C(C)(C)C(=O)CC[C@]4(C)C3=CC[C@]12C)C(C)C [K3]	significantly lower levels of Eotaxin and 21.1±10.4 pg/mL	25.1 ± 12.0	significantly lower values ofAHR	11.3±7.0	49.8±12.8	38.2±8.7	0.8±0.9	9.7±3.6	52.1±8.1	37.1±5.7	1.1±1.1	–	–	–
C[C@]12C=CC(=O)C=C1CC[C@@H]1[C@@H]2[C@@H](O)C[C@@]2(C)[C@H]1CC[C@]2(O)C(=O)CO [Pred, Prednisolone, reference compound]	–	–	–	–	–	–	–	–	–	–	–	lower values of AHR but not statistically significant	13.3±7.8	0.8±0.8
